Reference: the supplement of paper PMC12076712

Tests used:
Test in all cases: pIC50, kinobeads binding competition
ACVR2B = ACVR2B (UniProt Q13705)
How it was run: (§1)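 Fold changes relative to vehicle, from biological duplicates, were fitted with logistic dose-response models in the R drc package to give pIC50. These fold changes came from TMT10 LC-MS/MS quantification of digested Kinobeads-bound proteins. Compound was applied at nine concentrations (top 30 μM) either to live Jurkat cells in 1:4 steps for 60 min at 37 °C before lysis, or to Jurkat lysate or a 1:1:1:1 HEK293/K-562/HepG2/placenta lysate mix in 1:5 steps for 60 min at 4 °C.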

CDK8 = CDK8 (UniProt P49336)
How it was run: as §1

CIT = CIT (UniProt O14578)
How it was run: as §1

EPHB1 = biological target: T1, EPHB1 (UniProt P54762); conditions: cell material: Lysate mix
T1 sequence (whole entry): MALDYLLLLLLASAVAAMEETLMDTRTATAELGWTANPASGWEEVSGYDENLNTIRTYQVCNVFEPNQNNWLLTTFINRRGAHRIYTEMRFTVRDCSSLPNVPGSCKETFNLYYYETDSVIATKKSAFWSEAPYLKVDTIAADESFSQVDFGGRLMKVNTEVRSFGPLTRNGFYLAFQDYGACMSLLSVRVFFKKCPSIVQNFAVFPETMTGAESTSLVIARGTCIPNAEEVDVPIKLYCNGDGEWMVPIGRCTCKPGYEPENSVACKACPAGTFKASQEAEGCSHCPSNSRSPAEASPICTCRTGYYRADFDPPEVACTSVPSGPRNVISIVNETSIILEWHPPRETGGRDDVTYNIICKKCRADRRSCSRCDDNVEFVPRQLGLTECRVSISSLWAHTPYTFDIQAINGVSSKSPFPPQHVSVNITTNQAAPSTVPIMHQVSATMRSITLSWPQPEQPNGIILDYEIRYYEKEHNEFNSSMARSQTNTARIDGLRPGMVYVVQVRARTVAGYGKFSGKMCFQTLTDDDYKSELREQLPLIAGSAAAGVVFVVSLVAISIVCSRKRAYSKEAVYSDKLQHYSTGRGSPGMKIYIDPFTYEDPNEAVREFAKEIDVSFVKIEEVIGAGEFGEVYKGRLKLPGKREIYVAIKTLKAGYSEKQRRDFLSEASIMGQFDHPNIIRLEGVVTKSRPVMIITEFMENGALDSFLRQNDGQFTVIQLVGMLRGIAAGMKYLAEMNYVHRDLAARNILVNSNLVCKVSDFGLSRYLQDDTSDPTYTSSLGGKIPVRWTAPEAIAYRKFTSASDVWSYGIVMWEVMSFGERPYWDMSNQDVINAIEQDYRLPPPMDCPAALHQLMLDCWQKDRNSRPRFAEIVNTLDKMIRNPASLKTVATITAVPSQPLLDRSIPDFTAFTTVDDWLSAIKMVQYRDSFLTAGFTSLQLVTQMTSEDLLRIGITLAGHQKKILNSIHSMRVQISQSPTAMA
How it was run: as §1

FGFR3 = FGFR3 (UniProt P22607); conditions: cell material: Lysate mix
How it was run: as §1

HIPK2 = HIPK2 (UniProt Q9H2X6)
How it was run: as §1

Hck = Hck (UniProt P08631); conditions: cell material: Lysate mix
How it was run: as §1

UniProt O43318 = biological target: T2, UniProt O43318
T2 sequence (whole entry): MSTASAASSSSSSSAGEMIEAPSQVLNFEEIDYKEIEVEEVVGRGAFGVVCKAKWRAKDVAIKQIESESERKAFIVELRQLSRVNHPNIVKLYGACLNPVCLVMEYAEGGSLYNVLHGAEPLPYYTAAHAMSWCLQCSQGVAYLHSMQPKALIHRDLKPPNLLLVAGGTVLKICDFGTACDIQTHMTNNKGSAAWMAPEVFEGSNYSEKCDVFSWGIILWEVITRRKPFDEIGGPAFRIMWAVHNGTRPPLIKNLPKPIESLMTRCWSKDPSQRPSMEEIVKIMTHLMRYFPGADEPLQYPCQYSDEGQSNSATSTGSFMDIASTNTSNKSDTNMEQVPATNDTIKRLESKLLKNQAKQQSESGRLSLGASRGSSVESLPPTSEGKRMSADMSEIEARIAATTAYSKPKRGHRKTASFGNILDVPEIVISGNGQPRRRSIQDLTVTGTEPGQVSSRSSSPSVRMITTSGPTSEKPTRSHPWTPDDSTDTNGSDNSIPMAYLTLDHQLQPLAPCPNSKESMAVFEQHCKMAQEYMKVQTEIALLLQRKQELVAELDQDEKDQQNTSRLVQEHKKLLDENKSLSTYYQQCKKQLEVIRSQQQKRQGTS
How it was run: as §1

UniProt O75460 = biological target: UniProt O75460
How it was run: as §1

UniProt O94768 = biological target: T3, UniProt O94768
T3 sequence (whole entry): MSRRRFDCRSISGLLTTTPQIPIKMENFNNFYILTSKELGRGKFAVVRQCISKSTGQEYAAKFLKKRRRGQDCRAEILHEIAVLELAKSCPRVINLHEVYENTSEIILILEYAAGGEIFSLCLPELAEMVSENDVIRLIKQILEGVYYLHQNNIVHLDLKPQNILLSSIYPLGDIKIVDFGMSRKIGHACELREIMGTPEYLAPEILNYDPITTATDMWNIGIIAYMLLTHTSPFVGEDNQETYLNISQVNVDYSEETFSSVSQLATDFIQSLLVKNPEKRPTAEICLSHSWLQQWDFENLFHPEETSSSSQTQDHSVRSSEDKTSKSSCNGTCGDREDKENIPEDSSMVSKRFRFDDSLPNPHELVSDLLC
How it was run: as §1

UniProt O96017 = biological target: UniProt O96017
How it was run: as §1

UniProt P06493 = biological target: UniProt P06493
How it was run: as §1

UniProt P17612 = biological target: UniProt P17612
How it was run: as §1

UniProt Q05655 = biological target: UniProt Q05655
How it was run: as §1

UniProt Q9NSY1 = biological target: UniProt Q9NSY1
How it was run: as §1

Chain of FGFR3 (P22607 whole entry, looked up): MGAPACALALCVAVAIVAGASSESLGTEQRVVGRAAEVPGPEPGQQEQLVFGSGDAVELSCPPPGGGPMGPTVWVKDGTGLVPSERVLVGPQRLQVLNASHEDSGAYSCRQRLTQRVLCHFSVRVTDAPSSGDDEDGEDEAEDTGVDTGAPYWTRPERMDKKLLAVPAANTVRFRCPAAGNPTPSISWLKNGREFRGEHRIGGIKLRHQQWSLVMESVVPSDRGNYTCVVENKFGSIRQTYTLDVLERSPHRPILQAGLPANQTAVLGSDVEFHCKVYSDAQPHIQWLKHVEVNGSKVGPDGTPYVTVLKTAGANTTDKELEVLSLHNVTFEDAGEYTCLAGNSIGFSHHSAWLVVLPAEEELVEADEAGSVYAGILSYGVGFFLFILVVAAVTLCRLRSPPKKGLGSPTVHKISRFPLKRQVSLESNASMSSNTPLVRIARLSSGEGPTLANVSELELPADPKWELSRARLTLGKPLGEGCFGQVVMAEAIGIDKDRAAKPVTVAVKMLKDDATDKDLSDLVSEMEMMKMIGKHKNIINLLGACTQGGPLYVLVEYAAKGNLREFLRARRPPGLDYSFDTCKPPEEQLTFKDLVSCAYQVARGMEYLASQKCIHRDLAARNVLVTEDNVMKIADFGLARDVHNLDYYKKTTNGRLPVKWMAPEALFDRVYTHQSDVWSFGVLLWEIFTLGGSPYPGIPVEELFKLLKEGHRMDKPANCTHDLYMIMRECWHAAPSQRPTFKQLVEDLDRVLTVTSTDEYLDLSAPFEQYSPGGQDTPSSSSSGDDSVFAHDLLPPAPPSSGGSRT
Chain of ACVR2B (Q13705 whole entry): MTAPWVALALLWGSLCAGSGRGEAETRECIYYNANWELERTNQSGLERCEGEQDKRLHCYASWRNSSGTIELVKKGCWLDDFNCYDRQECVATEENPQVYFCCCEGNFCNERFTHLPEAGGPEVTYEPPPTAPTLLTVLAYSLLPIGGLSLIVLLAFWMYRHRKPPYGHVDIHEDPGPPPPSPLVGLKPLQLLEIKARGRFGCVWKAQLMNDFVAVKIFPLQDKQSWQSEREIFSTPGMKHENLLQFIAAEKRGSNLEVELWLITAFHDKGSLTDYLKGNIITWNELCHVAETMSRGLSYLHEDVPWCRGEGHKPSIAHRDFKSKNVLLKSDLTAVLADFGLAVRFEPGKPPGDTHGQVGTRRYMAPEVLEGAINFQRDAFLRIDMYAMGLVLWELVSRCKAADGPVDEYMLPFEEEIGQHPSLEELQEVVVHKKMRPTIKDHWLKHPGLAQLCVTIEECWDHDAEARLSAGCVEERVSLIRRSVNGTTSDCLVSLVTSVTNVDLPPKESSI
Chain of UniProt P06493 (P06493 whole entry, looked up): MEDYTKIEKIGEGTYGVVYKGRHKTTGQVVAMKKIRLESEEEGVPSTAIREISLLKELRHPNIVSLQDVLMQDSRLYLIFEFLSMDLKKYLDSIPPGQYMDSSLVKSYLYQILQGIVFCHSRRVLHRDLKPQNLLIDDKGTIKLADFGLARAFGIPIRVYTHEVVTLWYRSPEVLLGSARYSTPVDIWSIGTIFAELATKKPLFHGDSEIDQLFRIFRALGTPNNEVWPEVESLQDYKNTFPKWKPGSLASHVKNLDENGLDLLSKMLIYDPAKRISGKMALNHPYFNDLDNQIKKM
Chain of UniProt O96017 (O96017 whole entry): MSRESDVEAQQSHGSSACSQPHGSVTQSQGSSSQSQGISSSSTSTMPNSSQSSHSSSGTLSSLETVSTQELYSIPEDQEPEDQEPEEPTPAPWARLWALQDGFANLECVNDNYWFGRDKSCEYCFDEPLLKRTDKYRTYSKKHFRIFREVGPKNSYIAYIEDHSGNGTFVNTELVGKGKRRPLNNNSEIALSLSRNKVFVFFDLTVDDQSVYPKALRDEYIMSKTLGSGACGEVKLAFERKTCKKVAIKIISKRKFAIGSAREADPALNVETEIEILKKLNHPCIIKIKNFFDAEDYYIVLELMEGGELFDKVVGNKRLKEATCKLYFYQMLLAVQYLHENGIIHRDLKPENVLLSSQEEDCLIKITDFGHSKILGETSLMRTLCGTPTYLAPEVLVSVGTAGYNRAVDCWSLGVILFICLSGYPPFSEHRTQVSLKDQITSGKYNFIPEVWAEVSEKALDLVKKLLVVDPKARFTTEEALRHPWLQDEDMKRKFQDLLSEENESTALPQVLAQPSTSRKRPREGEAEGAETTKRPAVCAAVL
Chain of UniProt Q9NSY1 (Q9NSY1 whole entry, looked up): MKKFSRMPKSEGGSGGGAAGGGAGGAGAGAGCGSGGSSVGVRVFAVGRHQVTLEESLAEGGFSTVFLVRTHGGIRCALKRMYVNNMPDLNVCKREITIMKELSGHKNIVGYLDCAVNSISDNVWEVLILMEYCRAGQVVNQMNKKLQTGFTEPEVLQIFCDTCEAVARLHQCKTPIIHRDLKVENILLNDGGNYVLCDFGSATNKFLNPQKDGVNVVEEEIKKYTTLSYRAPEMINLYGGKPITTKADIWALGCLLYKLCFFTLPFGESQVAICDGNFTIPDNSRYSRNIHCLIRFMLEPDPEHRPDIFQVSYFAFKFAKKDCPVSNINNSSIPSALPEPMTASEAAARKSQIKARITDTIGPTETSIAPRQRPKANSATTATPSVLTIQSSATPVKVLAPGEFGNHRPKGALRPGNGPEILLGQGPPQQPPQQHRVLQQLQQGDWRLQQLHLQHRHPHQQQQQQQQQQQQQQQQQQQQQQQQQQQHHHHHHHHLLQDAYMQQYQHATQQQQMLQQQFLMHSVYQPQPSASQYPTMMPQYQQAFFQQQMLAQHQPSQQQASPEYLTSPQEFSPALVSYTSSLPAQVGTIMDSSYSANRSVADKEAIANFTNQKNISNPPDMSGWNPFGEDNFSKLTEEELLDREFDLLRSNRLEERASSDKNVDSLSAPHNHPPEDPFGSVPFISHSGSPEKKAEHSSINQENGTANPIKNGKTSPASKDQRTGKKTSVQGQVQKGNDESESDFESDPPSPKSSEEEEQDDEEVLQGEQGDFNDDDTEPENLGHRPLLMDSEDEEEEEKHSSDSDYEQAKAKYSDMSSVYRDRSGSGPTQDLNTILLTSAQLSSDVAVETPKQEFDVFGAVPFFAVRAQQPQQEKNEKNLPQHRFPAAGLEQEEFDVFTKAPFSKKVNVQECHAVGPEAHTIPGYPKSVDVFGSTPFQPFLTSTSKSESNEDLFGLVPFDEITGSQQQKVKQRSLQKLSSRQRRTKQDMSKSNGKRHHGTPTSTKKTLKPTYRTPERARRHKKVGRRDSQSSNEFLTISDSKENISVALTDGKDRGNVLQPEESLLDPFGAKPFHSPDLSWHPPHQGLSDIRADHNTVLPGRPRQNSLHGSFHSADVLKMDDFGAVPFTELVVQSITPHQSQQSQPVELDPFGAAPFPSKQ
Chain of HIPK2 (Q9H2X6 whole entry, looked up): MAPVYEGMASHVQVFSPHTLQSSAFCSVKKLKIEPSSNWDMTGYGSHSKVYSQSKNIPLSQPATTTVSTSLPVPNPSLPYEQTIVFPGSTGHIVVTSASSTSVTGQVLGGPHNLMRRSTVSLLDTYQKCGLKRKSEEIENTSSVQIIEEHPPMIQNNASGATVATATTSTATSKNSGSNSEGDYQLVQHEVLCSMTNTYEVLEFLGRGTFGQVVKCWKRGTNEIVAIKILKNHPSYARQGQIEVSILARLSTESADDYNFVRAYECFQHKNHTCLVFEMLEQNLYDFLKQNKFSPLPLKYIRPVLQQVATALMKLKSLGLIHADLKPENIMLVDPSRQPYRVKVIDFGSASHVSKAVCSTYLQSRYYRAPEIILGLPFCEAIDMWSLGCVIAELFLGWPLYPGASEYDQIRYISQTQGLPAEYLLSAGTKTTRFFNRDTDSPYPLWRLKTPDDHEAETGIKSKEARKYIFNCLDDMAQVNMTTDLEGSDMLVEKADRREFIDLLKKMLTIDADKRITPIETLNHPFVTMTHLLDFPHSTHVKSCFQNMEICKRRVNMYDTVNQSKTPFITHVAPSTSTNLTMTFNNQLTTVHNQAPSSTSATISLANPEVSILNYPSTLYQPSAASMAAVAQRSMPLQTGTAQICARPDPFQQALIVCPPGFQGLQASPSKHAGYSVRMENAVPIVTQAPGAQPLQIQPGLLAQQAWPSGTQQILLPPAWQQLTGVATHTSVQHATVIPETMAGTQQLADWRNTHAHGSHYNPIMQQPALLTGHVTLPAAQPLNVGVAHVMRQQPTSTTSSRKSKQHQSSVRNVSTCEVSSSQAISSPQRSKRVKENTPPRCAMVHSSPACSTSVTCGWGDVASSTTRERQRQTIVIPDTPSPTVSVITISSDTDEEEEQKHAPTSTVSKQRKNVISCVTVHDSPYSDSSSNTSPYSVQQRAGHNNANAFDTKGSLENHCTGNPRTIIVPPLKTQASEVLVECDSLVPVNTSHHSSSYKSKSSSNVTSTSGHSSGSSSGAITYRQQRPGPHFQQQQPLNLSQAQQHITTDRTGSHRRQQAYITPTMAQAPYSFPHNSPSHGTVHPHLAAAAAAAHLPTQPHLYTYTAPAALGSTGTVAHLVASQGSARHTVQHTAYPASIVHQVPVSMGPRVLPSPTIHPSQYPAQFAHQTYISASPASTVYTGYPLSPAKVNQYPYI
Chain of CDK8 (P49336 whole entry): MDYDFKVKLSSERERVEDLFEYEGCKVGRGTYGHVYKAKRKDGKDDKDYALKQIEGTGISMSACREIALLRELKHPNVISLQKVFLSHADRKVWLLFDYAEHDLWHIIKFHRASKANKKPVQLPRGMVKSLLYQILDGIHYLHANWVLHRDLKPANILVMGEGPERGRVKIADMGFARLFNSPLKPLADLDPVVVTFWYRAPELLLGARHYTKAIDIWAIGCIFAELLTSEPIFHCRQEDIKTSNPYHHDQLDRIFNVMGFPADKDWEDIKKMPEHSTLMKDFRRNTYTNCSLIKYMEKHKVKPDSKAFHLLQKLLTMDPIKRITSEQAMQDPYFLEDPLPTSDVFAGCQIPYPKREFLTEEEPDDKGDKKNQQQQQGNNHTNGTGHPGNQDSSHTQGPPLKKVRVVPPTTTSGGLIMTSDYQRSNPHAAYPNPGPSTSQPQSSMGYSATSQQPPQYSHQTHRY

pIC50 (ACVR2B; cell material: Jurkat cells)	pIC50 (ACVR2B; cell material: Lysate mix)	pIC50 (CDK8; cell material: Lysate mix)	pIC50 (CIT; cell material: Jurkat cells)	pIC50 (CIT; cell material: Lysate mix)	pIC50 (EPHB1)	pIC50 (FGFR3)	pIC50 (HIPK2; cell material: Lysate mix)	pIC50 (Hck)	pIC50 (UniProt O43318; cell material: Lysate mix)	pIC50 (UniProt O75460; cell material: Lysate mix)	pIC50 (UniProt O94768; cell material: Jurkat cells)	pIC50 (UniProt O94768; cell material: Lysate mix)	pIC50 (UniProt O96017; cell material: Lysate mix)	pIC50 (UniProt P06493; cell material: Lysate mix)	pIC50 (UniProt P17612; cell material: Lysate mix)	pIC50 (UniProt Q05655; cell material: Lysate mix)	pIC50 (UniProt Q9NSY1; cell material: Lysate mix)	SMILES	pIC50 (ACVR2B; cell material: Jurkat lysate)	pIC50 (CDK8; cell material: Jurkat cells)	pIC50 (CDK8; cell material: Jurkat lysate)	pIC50 (CIT; cell material: Jurkat lysate)	pIC50 (HIPK2; cell material: Jurkat cells)	pIC50 (HIPK2; cell material: Jurkat lysate)	pIC50 (UniProt O43318; cell material: Jurkat cells)	pIC50 (UniProt O43318; cell material: Jurkat lysate)	pIC50 (UniProt O75460; cell material: Jurkat lysate)	pIC50 (UniProt O94768; cell material: Jurkat lysate)	pIC50 (UniProt O96017; cell material: Jurkat cells)	pIC50 (UniProt O96017; cell material: Jurkat lysate)	pIC50 (UniProt P06493; cell material: Jurkat cells)	pIC50 (UniProt P06493; cell material: Jurkat lysate)	pIC50 (UniProt P17612; cell material: Jurkat cells)	pIC50 (UniProt P17612; cell material: Jurkat lysate)	pIC50 (UniProt Q05655; cell material: Jurkat cells)	pIC50 (UniProt Q05655; cell material: Jurkat lysate)	pIC50 (UniProt Q9NSY1; cell material: Jurkat cells)	pIC50 (UniProt Q9NSY1; cell material: Jurkat lysate)	pIC50 (UniProt O75460; cell material: Jurkat cells)
< 4.52	< 4.52	< 4.52	< 4.52	< 4.52	< 4.52	< 4.52	< 4.52	< 4.52	< 4.52	< 4.52	< 4.52	< 4.52	4.71	< 4.52	< 4.52	< 4.52	< 4.52	O=C(NCCNC(=O)c1cc(Nc2cc(C3CC3)[nH]n2)nc(N2CCN(Cc3ccc(S(=O)(=O)F)cc3)CC2)n1)OC1CC/C=C/CCC1 (centres undefined)	< 4.52	< 4.52	< 4.52	< 4.52	5.49	< 4.52	5.65	< 4.52	< 4.52	< 4.52	5.78	4.92	5.11	< 4.52	< 4.52	< 4.52	5.19	< 4.52	< 4.52	< 4.52	
	< 4.52	< 4.52		< 4.52	< 4.52	< 4.52	< 4.52	< 4.52	< 4.52	< 4.52		< 4.52	5.23	< 4.52	< 4.52	< 4.52	< 4.52	Cc1cc(Nc2cc(C(=O)NCCNC(=O)OC3CC/C=C/CCC3)nc(N3CCN(Cc4ccc(S(=O)(=O)F)cc4)CC3)n2)n[nH]1 (centres undefined)																					
	< 4.52	< 4.52		< 4.52	< 4.52	5.04	5.72	5.8	< 4.52	< 4.52		< 4.52	4.75	5.5	< 4.52	< 4.52	< 4.52	CCNC(=O)c1cc(Nc2cc(C3CC3)[nH]n2)nc(N2CCN(Cc3ccc(S(=O)(=O)F)cc3)CC2)n1																					
	< 4.52	< 4.52		< 4.52	< 4.52	< 4.52	4.77	5.62	< 4.52	< 4.52		< 4.52	4.92	< 4.52	< 4.52	< 4.52	< 4.52	CCNC(=O)c1cc(Nc2cc(C)[nH]n2)nc(N2CCN(Cc3ccc(S(=O)(=O)F)cc3)CC2)n1																					
	< 4.52	< 4.52		< 4.52	< 4.52	< 4.52	4.98	5.4	< 4.52	< 4.52		< 4.52	4.98	< 4.52	< 4.52	< 4.52	< 4.52	C#CCNC(=O)c1cc(Nc2cc(C)[nH]n2)nc(N2CCN(Cc3ccc(S(=O)(=O)F)cc3)CC2)n1																					

SMILES	pIC50 (ACVR2B; cell material: Jurkat cells)	pIC50 (ACVR2B; cell material: Lysate mix)	pIC50 (CDK8; cell material: Lysate mix)	pIC50 (CIT; cell material: Jurkat cells)	pIC50 (CIT; cell material: Lysate mix)	pIC50 (EPHB1)	pIC50 (FGFR3)	pIC50 (HIPK2; cell material: Lysate mix)	pIC50 (Hck)	pIC50 (UniProt O43318; cell material: Lysate mix)	pIC50 (UniProt O75460; cell material: Lysate mix)	pIC50 (UniProt O94768; cell material: Jurkat cells)	pIC50 (UniProt O94768; cell material: Lysate mix)	pIC50 (UniProt O96017; cell material: Lysate mix)	pIC50 (UniProt P06493; cell material: Lysate mix)	pIC50 (UniProt P17612; cell material: Lysate mix)	pIC50 (UniProt Q05655; cell material: Lysate mix)	pIC50 (UniProt Q9NSY1; cell material: Lysate mix)	pIC50 (ACVR2B; cell material: Jurkat lysate)	pIC50 (CDK8; cell material: Jurkat cells)	pIC50 (CDK8; cell material: Jurkat lysate)	pIC50 (CIT; cell material: Jurkat lysate)	pIC50 (HIPK2; cell material: Jurkat cells)	pIC50 (HIPK2; cell material: Jurkat lysate)	pIC50 (UniProt O43318; cell material: Jurkat cells)	pIC50 (UniProt O43318; cell material: Jurkat lysate)	pIC50 (UniProt O75460; cell material: Jurkat lysate)	pIC50 (UniProt O94768; cell material: Jurkat lysate)	pIC50 (UniProt O96017; cell material: Jurkat cells)	pIC50 (UniProt O96017; cell material: Jurkat lysate)	pIC50 (UniProt P06493; cell material: Jurkat cells)	pIC50 (UniProt P06493; cell material: Jurkat lysate)	pIC50 (UniProt P17612; cell material: Jurkat cells)	pIC50 (UniProt P17612; cell material: Jurkat lysate)	pIC50 (UniProt Q05655; cell material: Jurkat cells)	pIC50 (UniProt Q05655; cell material: Jurkat lysate)	pIC50 (UniProt Q9NSY1; cell material: Jurkat cells)	pIC50 (UniProt Q9NSY1; cell material: Jurkat lysate)	pIC50 (UniProt O75460; cell material: Jurkat cells)
C#CCNC(=O)c1cc(Nc2cc(C3CC3)[nH]n2)nc(N2CCN(Cc3ccc(S(=O)(=O)F)cc3)CC2)n1		< 4.52	< 4.52		< 4.52	< 4.52	< 4.52	5.92	5.86	< 4.52	< 4.52		< 4.52	4.92	5.7	< 4.52	< 4.52	< 4.52	< 4.52	< 4.52	< 4.52	< 4.52	6.12	5.54	5.87	< 4.52	< 4.52	< 4.52	5.76	4.88	6.32	5.37	< 4.52	< 4.52	5.53	< 4.52	5.24	< 4.52	< 4.52
